Several values for one entry are separate records, joined by “and”; a condition that tells them apart may be missing. Equal values may be shown once.
System: C. elegans
Conditions: for Percentage of motility inhibition 0 h / Percentage of motility inhibition 24 h: Table S2, C. elegans SS assay, 110 μM, averages of 4 data points

Molecule | Percentage of motility inhibition 0 h | Percentage of motility inhibition 24 h | Inhibition (%) 110 μM (0 h) | Inhibition (%) 110 μM (24 h)
C=C1C[C@@]23CC[C@H]4[C@@](C)(CCC[C@@]4(C)C(=O)O[C@@H]4O[C@H](CO)[C@@H](O)[C@H](O[C@@H]5O[C@H](CO)[C@@H](O)[C@H](O)[C@H]5O)[C@H]4O[C@@H]4O[C@H](CO)[C@@H](O)[C@H](O)[C@H]4O)[C@@H]2CC[C@]1(O[C@@H]1O[C@H](CO)[C@@H](O)[C@H](O[C@@H]2O[C@H](CO)[C@@H](O)[C@H](O)[C@H]2O)[C@H]1O[C@@H]1O[C@H](CO)[C@@H](O)[C@H](O)[C@H]1O)C3 [Rebaudioside M] | 7% | 0% | – | –
CC(C)=CCC[C@](C)(O[C@@H]1O[C@H](CO)[C@@H](O)[C@H](O)[C@H]1O)[C@H]1CC[C@]2(C)[C@@H]1[C@H](O)C[C@@H]1[C@@]3(C)CC[C@H](O)C(C)(C)[C@@H]3CC[C@]12C [Ginsenoside C-K] | 4% | 22% | – | –
CC/C=C\C/C=C\C/C=C\CCCCCCCC(=O)NCc1ccccc1 [N‐Benzyllinolenamide] | 2% | 0% | – | –
Cc1c(N(C)CS(=O)(=O)[O-])c(=O)n(-c2ccccc2)n1C.[Na+] [Metamizole (sodium)] | 17% | 2% | – | –
COc1cc2c(cc1OC)-c1c(C)c3ccc(OC)c(OC)c3c[n+]1CC2.[Cl-] [Dehydrocorydaline (chloride)] | 0% | 0% | – | –
Cc1onc(-c2ccccc2)c1C(=O)N[C@@H]1C(=O)N2[C@@H]1SC(C)(C)[C@@H]2C(=O)[O-].O.[Na+] [Oxacillin (sodium monohydrate)] | 27% | 9% | – | –
CCCCCCCCCCCCCCCCCCOC(=O)[C@@]1(C)CC[C@]2(C)CC[C@]3(C)C(=CC(=O)[C@@H]4[C@@]5(C)CC[C@H](O)C(C)(C)[C@@H]5CC[C@]43C)[C@@H]2C1 [Stearyl glycyrrhetinate] | 0% | 0% | – | –
C[C@@H]1C[C@H]2O[C@@]3(O[C@@H]2C(C)(C)O)[C@H](O)[C@@]2(C)[C@@H]4CC[C@H]5C(C)(C)[C@@H](O[C@@H]6OC[C@@H](O)[C@H](O)[C@H]6O)CC[C@@]56C[C@@]46CC[C@]2(C)[C@@H]13 [Cimigenoside] | 30% | 17% | – | –
CC[C@@]1(O)C(=O)OCc2c1cc1n(c2=O)Cc2cc3c(CN(C)C)c(O)ccc3nc2-1.Cl [Topotecan (hydrochloride)] | 19% | 6% | – | –
CC1=C(/C=C/C(C)=C/C=C/C(C)=C/C=C/C=C(C)/C=C/C=C(\C)C=O)C(C)(C)CCC1 [β-Apo-8'-carotenal] | 12% | 1% | – | –
C[C@@H]1CC[C@@H]2C(C(=O)O)=CO[C@@H](O[C@@H]3O[C@H](CO)[C@@H](O)[C@H](O)[C@H]3O)[C@H]12 [8-Epideoxyloganic acid] | 2% | 17% | – | –
C[C@H](CC[C@@H](O[C@@H]1O[C@H](CO[C@@H]2O[C@H](CO)[C@@H](O)[C@H](O)[C@H]2O)[C@@H](O)[C@H](O)[C@H]1O[C@@H]1O[C@H](CO)[C@@H](O)[C@H](O)[C@H]1O)C(C)(C)O)[C@H]1CC[C@@]2(C)[C@@H]3CC=C4[C@@H](CC[C@H](O[C@@H]5O[C@H](CO[C@@H]6O[C@H](CO)[C@@H](O)[C@H](O)[C@H]6O)[C@@H](O)[C@H](O)[C@H]5O)C4(C)C)[C@]3(C)[C@H](O)C[C@]12C [Mogroside V] | 19% | 12% | – | –
COc1cc(O)cc(O)c1C(=O)/C=C/c1ccccc1 [Cardamonin] | 0% | 13% | – | –
C=C1CC23CC4[C@@H]5[C@@]6(C)C[C@H](OC(C)=O)C[C@]57C(N4C6)[C@@]2(O)C(OC(C)=O)[C@H]1[C@@H](O)[C@H]37 (stereo partly drawn) [Guanfu base A] | 0% | 0% | – | –
CCC(CC)[C@H](NC(C)=O)[C@@H]1[C@H](O)[C@@H](C(=O)O)C[C@H]1NC(=N)N.O.O.O [Peramivir (trihydrate)] | 2% | 0% | – | –
C[C@@H]1CC[C@H]2[C@@H](C)C(=O)O[C@@H]3O[C@@]4(C)CC[C@@H]1[C@]32OO4 [Artemisinin] | – | 9% and 0% | – | –
CC(C)Nc1cccnc1N1CCN(C(=O)c2cc3cc(NS(C)(=O)=O)ccc3[nH]2)CC1.CS(=O)(=O)O [Delavirdine (mesylate)] | 22% | 16% | – | –
Milbemycin [reference compound] | – | – | 100 ± 0% | 86 ± 14%
CC(C)=CCC[C@](C)(O)[C@H]1CC[C@]2(C)[C@@H]1[C@H](O)C[C@@H]1[C@@]3(C)CC[C@H](O)C(C)(C)[C@@H]3[C@@H](O[C@@H]3O[C@H](CO)[C@@H](O)[C@H](O)[C@H]3O[C@@H]3OC[C@@H](O)[C@H](O)[C@H]3O)C[C@]12C [Notoginsenoside R2] | 19% | 9% | – | –
C[C@H](CO[C@@H]1O[C@H](CO)[C@@H](O)[C@H](O)[C@H]1O)[C@H]1CC[C@@]2(CC[C@]3(C)[C@H](CC[C@@H]4[C@@]5(C)CC[C@H](O[C@@H]6O[C@H](CO)[C@@H](O)[C@H](O)[C@H]6O[C@@H]6OC[C@@H](O)[C@H](O)[C@H]6O)[C@@](C)(CO)[C@@H]5CC[C@]43C)[C@H]2O)CO1 [Hosenkoside F] | 12% | 0% | – | –

Molecule | Percentage of motility inhibition 0 h | Percentage of motility inhibition 24 h | Inhibition (%) 110 μM (0 h) | Inhibition (%) 110 μM (24 h)
Oc1cc(O)c2c(c1)O[C@H](c1cc(O)c(O)c(O)c1)[C@@H](O)C2 [(+)‐Gallocatechin] | 0% | 12% | – | –
COc1ccc(-c2coc3cc(O[C@@H]4O[C@H](CO)[C@@H](O)[C@H](O)[C@H]4O)c(OC)c(O)c3c2=O)cc1O [Iristectorin A] | 0% | 2% | – | –
CC(C)=CCc1c(O)ccc(-c2coc3cc(O)cc(O)c3c2=O)c1O [Licoisoflavone A] | 0% | 10% | – | –
O[C@H]1[C@H]2c3cc4c(cc3CN3CC[C@H](C[C@@H]1O)[C@H]23)OCO4 [Dihydrolycorine] | 0% | 0% | – | –
COc1cc2c(cc1OC)C(Cc1ccc(O)cc1)N(C)CC2 (stereo not drawn) [Armepavine] | 0% | 12% | – | –
COC[C@]12CN(C)[C@@H]3[C@@H]4[C@H](OC)[C@H]1[C@@]3([C@@H](OC)C[C@H]2O)[C@@H]1C[C@@]2(O)[C@H](OC(=O)c3ccccc3)[C@@H]1[C@]4(OC(C)=O)[C@@H](O)[C@@H]2OC [Mesaconitine] | 0% | 3% | – | –
COc1c(O[C@@H]2O[C@H](C(=O)O)[C@@H](O)[C@H](O)[C@H]2O)cc(O)c2c(=O)cc(-c3ccccc3)oc12 [Wogonoside] | 6% | 2% | – | –
CCc1c2c(nc3ccccc13)-c1cc3c(c(=O)n1C2)COC(=O)[C@]3(O)CC [7‐Ethylcamptothecin] | 11% | 22% | – | –
COc1ccc2c3c1O[C@H]1C[C@@H](O)C=C[C@@]31CC[N+](C)([O-])C2 (stereo partly drawn) [Galanthamine N‐Oxide] | 3% | 4% | – | –
O.O=C(O)[C@@H]1[C@H]2C[C@H]3c4[nH]c5ccccc5c4CCN3C[C@@H]2CC[C@@H]1O [Yohimbic acid (hydrate)] | 16% | 0% | – | –
O=C(/C=C/c1ccc(O)c(O)c1)OC1(C(=O)O)C[C@@H](O)C(O)[C@H](O)C1 (stereo partly drawn) [1‐Caffeoylquinic acid] | 24% | 0% | – | –
COc1ccc([C@@H]2CC(=O)c3c(O)cc(O)cc3O2)cc1O (racemic) [(Rac)‐Hesperetin] | 0% | 0% | – | –
CC(C)(CO)[C@@H](O)C(=O)NCCC(=O)[O-].[Na+] [D-Pantothenic acid (sodium)] | 1% | 4% | – | –
O=c1c(O[C@@H]2O[C@H](CO)[C@@H](O)[C@H](O)[C@H]2O[C@@H]2O[C@H](CO)[C@@H](O)[C@H](O)[C@H]2O)c(-c2ccc(O)c(O)c2)oc2cc(O)cc(O)c12 [Baimaside] | 13% | 0% | – | –
CC1(C)[C@@H](O[C@@H]2OC[C@H](O[C@@H]3O[C@H](CO)[C@@H](O)[C@H](O)[C@H]3O[C@@H]3OC[C@@H](O)[C@H](O)[C@H]3O)[C@H](O)[C@H]2O[C@@H]2O[C@H](CO)[C@@H](O)[C@H](O)[C@H]2O)CC[C@]2(C)[C@H]3CC[C@]45OC[C@@]6(CC[C@](C)(C=O)C[C@H]64)[C@H](O)C[C@@]5(C)[C@]3(C)CC[C@@H]12 [Ardisiacrispin A] | 22% | 0% | – | –
CCCCCCCCCCCCC(=O)NNC(=O)c1c(O)c2ccccc2n(CC)c1=O [I2906] | 27% | 30% | – | –
NCCc1c[nH]cn1.O=P(O)(O)O.O=P(O)(O)O [Histamine (phosphate)] | 6% and 9% | – | – | –
CC(C)(CO)[C@@H](O)C(=O)NCCC(=O)[O-].CC(C)(CO)[C@@H](O)C(=O)NCCC(=O)[O-].[Ca+2] [D-Pantothenic acid (hemicalcium salt)] | 48% | 1% | – | –
CC/C=C\CC1=C(C)CCC1=O [cis‐Jasmone] | 10% | 9% | – | –
C[C@H](CC(=O)C[C@](C)(O)[C@@H]1CC(=O)[C@@]2(C)C3=C(C(=O)C[C@]12C)[C@@]1(C)CC[C@H](O)C(C)(C)[C@@H]1C[C@@H]3O)C(=O)O [Ganoderic acid I] | 0% | 11% | – | –
